The results in this text go back to BindingDB's records for doi:10.1016/j.bmcl.2015.06.096 (Vanderbilt University Medical Center, 2015).

A word on the EC50: it is the concentration at which the effect is half-maximal.

This assay deals with Metabotropic glutamate receptor 5 (Homo sapiens, UniProt P41594). The assay can be described thus: Positive allosteric modulation of human mGlu5 receptor expressed in HEK293 cells by calcium mobilization assay. (Calcium assays in cells follow changes in intracellular calcium, usually with a dye or a luminescent sensor.)
Metabotropic glutamate receptor 5, sequence (P41594 whole entry): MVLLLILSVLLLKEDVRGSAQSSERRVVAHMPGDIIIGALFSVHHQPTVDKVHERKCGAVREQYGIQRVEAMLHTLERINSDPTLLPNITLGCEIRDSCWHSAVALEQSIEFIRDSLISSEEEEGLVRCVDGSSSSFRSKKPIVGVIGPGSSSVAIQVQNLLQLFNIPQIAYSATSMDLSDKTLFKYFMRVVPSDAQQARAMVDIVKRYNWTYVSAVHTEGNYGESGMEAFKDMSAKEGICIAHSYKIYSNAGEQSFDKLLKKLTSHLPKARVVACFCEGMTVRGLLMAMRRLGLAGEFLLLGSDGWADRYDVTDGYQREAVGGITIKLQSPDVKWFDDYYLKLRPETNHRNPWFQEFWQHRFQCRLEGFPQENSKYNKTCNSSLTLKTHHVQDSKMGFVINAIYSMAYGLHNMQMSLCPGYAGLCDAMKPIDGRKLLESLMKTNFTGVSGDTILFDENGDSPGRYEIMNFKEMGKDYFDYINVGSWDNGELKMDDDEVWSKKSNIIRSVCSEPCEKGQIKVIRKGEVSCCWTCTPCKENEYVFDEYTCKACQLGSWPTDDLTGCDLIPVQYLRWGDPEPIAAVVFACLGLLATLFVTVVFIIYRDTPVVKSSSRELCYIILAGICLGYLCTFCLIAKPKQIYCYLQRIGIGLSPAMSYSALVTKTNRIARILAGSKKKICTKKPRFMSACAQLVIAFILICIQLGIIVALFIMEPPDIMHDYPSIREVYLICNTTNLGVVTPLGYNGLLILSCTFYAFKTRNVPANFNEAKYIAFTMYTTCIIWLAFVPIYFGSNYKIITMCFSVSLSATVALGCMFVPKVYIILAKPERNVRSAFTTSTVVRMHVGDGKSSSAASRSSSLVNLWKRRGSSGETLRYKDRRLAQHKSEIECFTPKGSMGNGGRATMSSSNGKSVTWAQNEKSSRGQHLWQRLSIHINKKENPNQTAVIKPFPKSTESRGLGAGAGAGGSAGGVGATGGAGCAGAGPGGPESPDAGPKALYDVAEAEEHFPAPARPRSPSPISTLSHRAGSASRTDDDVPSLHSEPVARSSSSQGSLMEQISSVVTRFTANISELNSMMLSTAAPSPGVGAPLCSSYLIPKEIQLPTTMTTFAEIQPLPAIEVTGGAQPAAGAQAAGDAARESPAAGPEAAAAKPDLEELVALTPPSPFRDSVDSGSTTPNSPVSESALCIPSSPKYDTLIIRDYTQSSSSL

Take `O=C(c1c(F)cccc1F)N1CCc2nc(COc3cccc(F)c3)oc2C1`: the EC50 was determined as 0.323 µM.
